ChEMBL document CHEMBL1148338, “Structure-activity relationships at monoamine transporters for a series of N-substituted 3alpha-(bis[4-fluorophenyl]methoxy)tropanes: comparative molecular field analysis, synthesis, and pharmacological evaluation” (J Med Chem, 2004)

Assays:
[1] = molecular target: Norepinephrine transporter (Rattus norvegicus, UniProt Q9WTR4); experiment: Displacement of [3H]nisoxetine from norepinephrine transporter (NET) of rat brain; type: tissue-based
[2] = molecular target: Sodium-dependent serotonin transporter (Rattus norvegicus, UniProt P31652); experiment: Binding affinity at serotonin transporter in rat brain by [3H]-citalopram displacement.; type: tissue-based
Chain of Sodium-dependent serotonin transporter (P31652 whole entry): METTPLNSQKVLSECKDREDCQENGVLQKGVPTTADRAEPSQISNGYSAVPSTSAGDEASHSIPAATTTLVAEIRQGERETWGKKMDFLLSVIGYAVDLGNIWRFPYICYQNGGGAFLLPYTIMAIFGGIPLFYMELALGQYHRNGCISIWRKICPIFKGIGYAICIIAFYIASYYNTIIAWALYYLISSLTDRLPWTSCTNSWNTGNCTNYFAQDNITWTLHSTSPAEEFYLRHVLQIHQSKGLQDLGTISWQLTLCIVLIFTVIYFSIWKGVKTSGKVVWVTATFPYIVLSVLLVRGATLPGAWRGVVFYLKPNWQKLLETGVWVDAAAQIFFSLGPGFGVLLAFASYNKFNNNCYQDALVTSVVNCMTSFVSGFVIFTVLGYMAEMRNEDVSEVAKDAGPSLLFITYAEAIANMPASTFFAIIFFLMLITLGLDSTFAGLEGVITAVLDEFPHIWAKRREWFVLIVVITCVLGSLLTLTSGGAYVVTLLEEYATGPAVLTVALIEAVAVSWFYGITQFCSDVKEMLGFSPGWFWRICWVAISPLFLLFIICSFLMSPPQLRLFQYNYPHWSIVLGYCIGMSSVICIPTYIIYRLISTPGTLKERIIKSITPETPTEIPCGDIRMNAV

[3] = species: Rattus norvegicus; experiment: Compound was tested for inhibition of [3H]dopamine uptake (DAUI) in rat synaptosomes; type: functional; conditions: Brain
[4] = molecular target: Sodium-dependent dopamine transporter (Rattus norvegicus, UniProt P23977); experiment: biochemical; type: tissue-based, Brain
Chain of Sodium-dependent dopamine transporter (P23977 whole entry): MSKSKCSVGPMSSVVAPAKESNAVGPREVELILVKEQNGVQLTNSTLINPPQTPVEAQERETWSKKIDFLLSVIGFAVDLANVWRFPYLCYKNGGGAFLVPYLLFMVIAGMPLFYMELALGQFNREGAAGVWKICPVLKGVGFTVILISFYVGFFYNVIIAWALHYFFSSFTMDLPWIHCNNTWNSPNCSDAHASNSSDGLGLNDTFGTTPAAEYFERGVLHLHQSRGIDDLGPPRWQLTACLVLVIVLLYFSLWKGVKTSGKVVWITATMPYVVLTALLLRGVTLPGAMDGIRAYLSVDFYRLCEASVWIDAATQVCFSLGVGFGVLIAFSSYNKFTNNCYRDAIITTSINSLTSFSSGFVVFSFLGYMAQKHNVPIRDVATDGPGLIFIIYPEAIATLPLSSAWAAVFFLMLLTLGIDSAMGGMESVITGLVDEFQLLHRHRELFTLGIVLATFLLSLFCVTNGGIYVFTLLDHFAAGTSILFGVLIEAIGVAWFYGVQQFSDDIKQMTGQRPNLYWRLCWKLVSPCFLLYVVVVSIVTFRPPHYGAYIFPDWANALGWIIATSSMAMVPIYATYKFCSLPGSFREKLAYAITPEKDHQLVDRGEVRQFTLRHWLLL
Description: Binding affinity at dopamine transporter in rat brain by [3H]WIN-35428 displacement.

[5] = molecular target: T1, Muscarinic acetylcholine receptor M1 (Rattus norvegicus, UniProt P08482); experiment: Binding affinity at muscarinic M1 receptor in rat brain by [3H]pirenzepine displacement.; type: tissue-based
T1 sequence (P08482 whole entry): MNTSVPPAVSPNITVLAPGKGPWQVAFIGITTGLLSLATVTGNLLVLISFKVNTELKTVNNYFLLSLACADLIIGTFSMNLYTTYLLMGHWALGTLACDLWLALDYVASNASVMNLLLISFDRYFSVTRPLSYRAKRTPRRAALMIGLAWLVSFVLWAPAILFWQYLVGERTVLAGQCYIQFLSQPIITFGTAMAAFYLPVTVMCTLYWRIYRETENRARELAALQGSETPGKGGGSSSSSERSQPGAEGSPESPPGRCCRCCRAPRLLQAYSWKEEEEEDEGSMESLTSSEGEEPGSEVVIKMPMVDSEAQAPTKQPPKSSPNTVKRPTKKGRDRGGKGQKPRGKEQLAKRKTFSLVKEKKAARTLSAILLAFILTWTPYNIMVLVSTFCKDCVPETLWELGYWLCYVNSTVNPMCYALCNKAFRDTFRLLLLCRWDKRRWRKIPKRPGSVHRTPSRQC

[6] = Partition coefficient (logD); conditions: octanol/water

Chain of Norepinephrine transporter (Q9WTR4 whole entry): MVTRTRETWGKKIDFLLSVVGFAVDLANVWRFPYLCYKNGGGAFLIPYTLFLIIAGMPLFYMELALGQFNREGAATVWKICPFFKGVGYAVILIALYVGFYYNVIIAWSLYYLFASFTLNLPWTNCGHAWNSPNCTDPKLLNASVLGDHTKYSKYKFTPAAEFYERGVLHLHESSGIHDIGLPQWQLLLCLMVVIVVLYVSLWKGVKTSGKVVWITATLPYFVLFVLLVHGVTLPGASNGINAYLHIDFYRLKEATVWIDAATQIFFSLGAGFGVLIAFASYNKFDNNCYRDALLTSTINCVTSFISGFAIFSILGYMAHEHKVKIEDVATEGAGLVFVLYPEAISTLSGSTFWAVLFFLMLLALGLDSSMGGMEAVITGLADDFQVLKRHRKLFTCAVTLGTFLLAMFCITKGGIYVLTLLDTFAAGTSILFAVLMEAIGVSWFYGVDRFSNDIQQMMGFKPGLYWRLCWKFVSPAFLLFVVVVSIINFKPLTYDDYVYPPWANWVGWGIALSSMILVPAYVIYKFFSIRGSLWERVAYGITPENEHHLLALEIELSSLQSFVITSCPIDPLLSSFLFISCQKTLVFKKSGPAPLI

SMILES | Ki [1] [nM] | Ki [2] [nM] | IC50 [3] [nM] | Ki [4] [nM] | Ki [5] [nM] | logD [6]
NCCN1[C@@H]2CC[C@H]1C[C@@H](OC(c1ccc(F)cc1)c1ccc(F)cc1)C2 | 1420 | 4600 | 26 | – | – | –
O=C(NCCN1C2CCC1CC(OC(c1ccc(F)cc1)c1ccc(F)cc1)C2)c1ccccc1 (centres undefined) | 637 | 597 | 6.5 | 13.1 | 556 | –
Fc1ccc(C(OC2CC3CCC(C2)N3CCNCc2ccccc2)c2ccc(F)cc2)cc1 (centres undefined) | – | – | 8.1 | – | – | –
O=C(CCN1[C@@H]2CC[C@H]1C[C@@H](OC(c1ccc(F)cc1)c1ccc(F)cc1)C2)Nc1ccccc1 | 1420 | 1490 | 5 | 27.6 | 3280 | –
Fc1ccc(C(OC2CC3CCC(C2)N3CCOCCN2CCOCC2)c2ccc(F)cc2)cc1 (centres undefined) | 28100 | 23000 | 659 | 1620 | 15800 | 2.05
O=C(NCCN1C2CCC1CC(OC(c1ccc(F)cc1)c1ccc(F)cc1)C2)c1cccnc1 (centres undefined) | – | – | 14.2 | – | – | –
Fc1ccc(C(OC2CC3CCC(C2)N3CCOCc2ccccc2)c2ccc(F)cc2)cc1 (centres undefined) | 3060 | 1300 | 22.3 | 48.5 | 390 | –
OCCOCCN1C2CCC1CC(OC(c1ccc(F)cc1)c1ccc(F)cc1)C2 (centres undefined) | 3650 | 14300 | 48.9 | 42.6 | 336 | 2.01
Fc1ccc(C(OC2CC3CCC(C2)N3CCOCc2cccs2)c2ccc(F)cc2)cc1 (centres undefined) | 3450 | 2090 | 18.7 | 65.9 | 613 | 4.19
Fc1ccc(C(OC2CC3CCC(C2)N3CCCOc2ccccc2)c2ccc(F)cc2)cc1 (centres undefined) | 12100 | 7730 | 227 | 703 | 9280 | –
COC(=O)[C@@H]1C2CC[C@@H](C[C@@H]1OC(=O)c1ccccc1)N2C (single isomer, unassigned) [COCAINE] | – | – | – | – | – | 1.51
